Measured values from US6887712B1, “Methods and compositions to lower plasma cholesterol levels” (AtheroGenics, Inc., priority 1998, dated 2005).

Tests used:
plasma cholesterol = assay: Plasma cholesterol lowering in hamsters; parameters: species or system hamster; details: ability to lower plasma cholesterol in vivo in hamsters, yes/no
Experimental: The monosuccinic acid ester of probucol and several other compounds were tested in vitro in the immunoreactivity cell-free assay described above in Example 3 and in vivo in hamsters for their ability to lower plasma cholesterol.

[1] = target: T1, specific epitope on apoB-100 of LDL (Homo sapiens, UniProt P04114); assay: Immunoreactivity cell-free sandwich ELISA: binding of LDL to capture anti-apoB monoclonal antibody; details: for Cell-Free Assay: immunoreactivity cell-free assay of Example 3, yes/no
T1 construct: from tissue; host or cells: LDL particles (plasma lipoprotein)
Excerpt: To determine if the binding of the monosuccinic acid ester to VLDL and LDL can cause a change in the structure of apoB-100, an immunoreactivity assay was designed. This is a sandwich ELISA assay which measures the expression of a specific epitope on apoB-100. Essentially the sandwich ELISA consists of a specific monoclonal antibody directed to that epitope on apoB-100 as a capture antibody laid onto a microtitre plate. […] A second polyclonal antibody is then used to quantify the amount of LDL captured.
The detailed immunoreactivity protocol is as follows. A nunc maxi-sorp microtiter plate is coated overnight at 4° C. with 100 μl of Anti-Human ApoB monoclonal antibody from Boehringer Mannheim (catalog # 1533 975) diluted 1:1000 in PBS pH 7.4. The compounds are dissolved in DMSO with appropriate concentration of LDL for 15 minutes and incubated at 37° C.
The coated microtiter plate is washed three times with 200 μl PBS/0.05% tween, and a sample of 100 μl LDL/Compound or LDL standard is added to each well. The plates are then incubated for 2 hours at room temperature.
The microtiter plate is washed three times with 200 μl PBS/0.05% tween, and 100 μl of 1:2000 Polyclonal Human Anti-ApolipoproteinB from Boehringer Mannheim (catalog # 726 494) in PBS/tween 0.05% is added. The plate is incubated for one hour at room temperature.
The microtiter plate is washed three times with 200 ul PBS/0.05% tween, and 100 μl of 1:2000 Anti-Sheep Ig peroxidase from Boehringer Mannheim (catalog # 605 345) in PBS/05% tween is added. The plate is incubated for one hour at room temperature.
The microtiter plate is washed three times with 200 ul PBS/0.05% tween, and 100 μl of TMB substrate is added and incubated for 5-10 minutes in the dark. The reaction is stopped with 15 μl 8N H2SO4 and read on the Bio-Rad Microplate plate reader at 450 nm within 30 minutes.

T1 sequence (P04114 28-4563): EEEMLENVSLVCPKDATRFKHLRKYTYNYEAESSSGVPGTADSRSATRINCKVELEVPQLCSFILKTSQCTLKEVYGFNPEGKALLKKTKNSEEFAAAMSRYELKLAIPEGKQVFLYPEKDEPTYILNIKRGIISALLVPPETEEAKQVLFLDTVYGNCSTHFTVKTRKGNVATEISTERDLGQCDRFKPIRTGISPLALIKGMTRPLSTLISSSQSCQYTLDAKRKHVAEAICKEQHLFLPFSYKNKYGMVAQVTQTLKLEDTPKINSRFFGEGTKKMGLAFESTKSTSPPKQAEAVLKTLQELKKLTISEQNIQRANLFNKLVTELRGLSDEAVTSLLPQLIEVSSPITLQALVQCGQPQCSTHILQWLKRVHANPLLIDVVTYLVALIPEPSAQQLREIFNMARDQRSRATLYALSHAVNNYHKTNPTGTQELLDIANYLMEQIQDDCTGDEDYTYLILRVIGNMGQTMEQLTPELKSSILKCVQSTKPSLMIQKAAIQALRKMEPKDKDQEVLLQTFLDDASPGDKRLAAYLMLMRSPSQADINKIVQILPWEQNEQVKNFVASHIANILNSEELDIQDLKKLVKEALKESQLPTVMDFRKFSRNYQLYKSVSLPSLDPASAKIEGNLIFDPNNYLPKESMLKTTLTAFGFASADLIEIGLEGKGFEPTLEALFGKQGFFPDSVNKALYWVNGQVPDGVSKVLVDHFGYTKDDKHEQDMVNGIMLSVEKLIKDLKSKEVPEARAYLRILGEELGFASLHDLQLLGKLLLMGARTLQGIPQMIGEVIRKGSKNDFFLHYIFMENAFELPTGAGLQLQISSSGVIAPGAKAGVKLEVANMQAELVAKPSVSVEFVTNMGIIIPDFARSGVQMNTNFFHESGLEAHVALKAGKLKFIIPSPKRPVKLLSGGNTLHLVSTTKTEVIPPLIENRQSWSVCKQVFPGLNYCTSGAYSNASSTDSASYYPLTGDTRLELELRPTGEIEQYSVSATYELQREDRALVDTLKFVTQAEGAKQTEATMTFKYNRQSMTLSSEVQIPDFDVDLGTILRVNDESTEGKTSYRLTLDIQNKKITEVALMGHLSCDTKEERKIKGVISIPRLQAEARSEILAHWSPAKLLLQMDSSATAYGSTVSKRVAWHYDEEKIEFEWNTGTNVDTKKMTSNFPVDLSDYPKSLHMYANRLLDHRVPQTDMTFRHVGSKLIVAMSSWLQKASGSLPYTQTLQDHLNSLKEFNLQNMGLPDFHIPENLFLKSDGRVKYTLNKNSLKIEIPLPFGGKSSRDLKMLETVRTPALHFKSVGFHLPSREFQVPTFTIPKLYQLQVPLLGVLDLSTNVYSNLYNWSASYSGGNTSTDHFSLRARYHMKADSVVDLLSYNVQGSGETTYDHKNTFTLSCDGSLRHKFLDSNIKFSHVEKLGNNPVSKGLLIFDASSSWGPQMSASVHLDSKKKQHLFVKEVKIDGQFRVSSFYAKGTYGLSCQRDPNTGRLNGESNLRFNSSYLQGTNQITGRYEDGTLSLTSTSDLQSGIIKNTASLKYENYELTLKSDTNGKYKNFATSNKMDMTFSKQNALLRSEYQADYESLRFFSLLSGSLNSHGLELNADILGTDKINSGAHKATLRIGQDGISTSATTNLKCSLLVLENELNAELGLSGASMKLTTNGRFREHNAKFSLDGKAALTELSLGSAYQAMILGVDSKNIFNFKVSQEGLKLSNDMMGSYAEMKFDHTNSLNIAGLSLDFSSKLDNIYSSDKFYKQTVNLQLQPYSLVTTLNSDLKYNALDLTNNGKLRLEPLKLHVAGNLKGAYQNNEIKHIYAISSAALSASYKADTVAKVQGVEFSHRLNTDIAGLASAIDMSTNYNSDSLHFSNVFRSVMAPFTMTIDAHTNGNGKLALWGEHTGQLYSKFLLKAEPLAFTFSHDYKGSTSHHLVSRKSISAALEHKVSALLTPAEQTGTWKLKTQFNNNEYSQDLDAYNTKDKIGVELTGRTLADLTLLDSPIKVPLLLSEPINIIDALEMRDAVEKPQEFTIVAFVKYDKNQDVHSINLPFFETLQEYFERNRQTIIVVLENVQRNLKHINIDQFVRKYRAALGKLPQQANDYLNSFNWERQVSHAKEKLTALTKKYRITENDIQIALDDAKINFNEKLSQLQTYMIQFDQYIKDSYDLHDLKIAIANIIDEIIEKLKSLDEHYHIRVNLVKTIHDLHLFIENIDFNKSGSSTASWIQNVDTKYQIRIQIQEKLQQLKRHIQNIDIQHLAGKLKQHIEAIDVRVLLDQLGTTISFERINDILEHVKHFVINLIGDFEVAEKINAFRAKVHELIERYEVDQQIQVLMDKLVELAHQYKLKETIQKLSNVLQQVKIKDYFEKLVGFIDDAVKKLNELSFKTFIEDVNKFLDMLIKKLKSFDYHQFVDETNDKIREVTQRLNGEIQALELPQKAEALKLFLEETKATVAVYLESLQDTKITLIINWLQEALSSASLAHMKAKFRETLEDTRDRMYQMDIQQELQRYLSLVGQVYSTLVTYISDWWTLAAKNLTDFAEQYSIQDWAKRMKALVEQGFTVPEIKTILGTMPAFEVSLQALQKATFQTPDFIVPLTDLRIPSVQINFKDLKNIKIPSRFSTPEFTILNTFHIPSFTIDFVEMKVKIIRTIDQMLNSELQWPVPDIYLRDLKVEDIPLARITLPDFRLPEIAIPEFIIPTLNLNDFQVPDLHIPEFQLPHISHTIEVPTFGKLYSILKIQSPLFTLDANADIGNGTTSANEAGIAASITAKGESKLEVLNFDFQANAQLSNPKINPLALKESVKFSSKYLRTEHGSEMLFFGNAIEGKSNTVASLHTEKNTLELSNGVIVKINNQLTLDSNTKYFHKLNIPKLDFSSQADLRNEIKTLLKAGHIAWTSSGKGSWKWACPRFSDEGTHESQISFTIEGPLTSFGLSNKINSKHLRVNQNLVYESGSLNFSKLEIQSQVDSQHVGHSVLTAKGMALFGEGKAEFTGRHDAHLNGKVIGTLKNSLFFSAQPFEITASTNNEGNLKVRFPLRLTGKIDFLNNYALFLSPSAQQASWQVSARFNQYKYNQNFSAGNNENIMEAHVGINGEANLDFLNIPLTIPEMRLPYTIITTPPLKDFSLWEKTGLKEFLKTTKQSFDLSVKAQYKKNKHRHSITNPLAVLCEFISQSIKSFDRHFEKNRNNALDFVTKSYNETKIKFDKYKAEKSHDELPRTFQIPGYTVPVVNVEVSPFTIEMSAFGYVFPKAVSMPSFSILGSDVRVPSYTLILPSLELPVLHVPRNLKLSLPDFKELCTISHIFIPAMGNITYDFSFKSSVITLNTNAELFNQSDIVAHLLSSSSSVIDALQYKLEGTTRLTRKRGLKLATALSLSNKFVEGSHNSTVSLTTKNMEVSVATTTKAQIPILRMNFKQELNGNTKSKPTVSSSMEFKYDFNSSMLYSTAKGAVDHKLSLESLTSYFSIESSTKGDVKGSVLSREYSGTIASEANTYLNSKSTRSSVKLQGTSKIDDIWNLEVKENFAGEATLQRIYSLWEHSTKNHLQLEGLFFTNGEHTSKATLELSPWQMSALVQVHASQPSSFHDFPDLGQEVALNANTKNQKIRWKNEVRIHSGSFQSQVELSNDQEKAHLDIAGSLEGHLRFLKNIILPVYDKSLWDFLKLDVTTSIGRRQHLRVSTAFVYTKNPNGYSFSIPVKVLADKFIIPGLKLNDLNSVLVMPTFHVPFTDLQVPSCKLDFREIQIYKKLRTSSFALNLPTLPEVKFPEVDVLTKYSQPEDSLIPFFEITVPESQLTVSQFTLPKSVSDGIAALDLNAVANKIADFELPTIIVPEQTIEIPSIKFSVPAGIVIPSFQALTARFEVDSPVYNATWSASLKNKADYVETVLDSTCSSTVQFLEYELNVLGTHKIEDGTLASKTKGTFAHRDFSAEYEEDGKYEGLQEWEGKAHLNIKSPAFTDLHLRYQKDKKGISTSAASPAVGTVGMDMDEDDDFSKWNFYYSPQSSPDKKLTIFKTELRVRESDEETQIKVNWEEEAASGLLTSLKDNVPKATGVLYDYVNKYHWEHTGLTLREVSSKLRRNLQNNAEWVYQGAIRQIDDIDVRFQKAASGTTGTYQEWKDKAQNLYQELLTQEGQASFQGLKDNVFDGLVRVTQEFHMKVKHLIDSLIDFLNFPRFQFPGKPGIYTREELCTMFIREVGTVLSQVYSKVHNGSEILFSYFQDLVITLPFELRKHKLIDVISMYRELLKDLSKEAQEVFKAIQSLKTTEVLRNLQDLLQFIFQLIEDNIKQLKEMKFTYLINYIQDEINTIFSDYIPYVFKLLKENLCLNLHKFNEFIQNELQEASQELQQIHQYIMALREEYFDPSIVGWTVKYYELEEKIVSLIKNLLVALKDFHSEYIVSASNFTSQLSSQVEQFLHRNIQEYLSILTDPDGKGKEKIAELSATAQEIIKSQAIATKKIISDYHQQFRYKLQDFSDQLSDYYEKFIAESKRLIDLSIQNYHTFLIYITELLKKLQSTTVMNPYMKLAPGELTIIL

Row | Molecule | Hamster (plasma cholesterol) | Cell-Free Assay [1] | effect on binding of LDL to the capture monoclonal antibody (FIG. 6a) [1]
1 | CC(C)(C)c1cc(SCc2ccc(F)cc2)cc(C(C)(C)C)c1O [2,6-di-tert-butyl-4-[(4-fluorobenzyl)thio]phenol] | no | no | 
2 | CC(C)(C)c1cc(SCc2ccc(C(F)(F)F)cc2)cc(C(C)(C)C)c1O [2,6-di-tert-butyl-4-thio-(4′-(trifluoromethyl)benzyl) phenol] | yes | yes | 
3 | vitamin E [reference compound] |  |  | no significant effect
4 | CC(C)(Sc1cc(C(C)(C)C)c(O)c(C(C)(C)C)c1)Sc1cc(C(C)(C)C)c(OCC(O)C(O)C(O)C(O)CO)c(C(C)(C)C)c1 (stereo not drawn) [probucol-2,3,4,5,6-pentahydroxyhexyl ether] | yes | yes | 
5 | CCN(CC)S(=O)(=O)c1ccc(CSc2cc(C(C)(C)C)c(O)c(C(C)(C)C)c2)cc1 [N,N-diethyl-4-[3,5-di-tert-butyl-4-hydroxyphenylthio)methyl]benzene-sulfonamide] | no | no | 
6 | CC(C)(Sc1cc(C(C)(C)C)c(O)c(C(C)(C)C)c1)Sc1cc(C(C)(C)C)c(OC(=O)CCCC(=O)O)c(C(C)(C)C)c1 [pentanedioic acid, mono[4-[[1-[3,5-bis(1,1-dimethylethyl)-4-hydroxyphenyl]thio]1-methylethyl]thio-2,6-bis(1,1-dimethylethyl)phenyl]ester] | yes | yes | 
7 | Cc1c(C)c2c(c(C)c1OC(=O)CCC(=O)O)CC[C@@](C)(CCC[C@H](C)CCC[C@H](C)CCCC(C)C)O2 [vitamin E succinate, reference compound] |  |  | increased the binding of LDL
8 | CC(C)(Sc1cc(C(C)(C)C)c(O)c(C(C)(C)C)c1)Sc1cc(C(C)(C)C)c(OCC(O)C(O)C(O)C(=O)O)c(C(C)(C)C)c1 (stereo not drawn) [5-[4-[[1-[[3,5-bis(1,1-dimethylethyl)-4-hydroxyphenyl)thio]-1-methylethyl]thioo-2,6-bis(1,1-dimethylethyl)phenoxy-2,3,4-trihydroxy-pentanoic acid] | no | yes | 
9 | CN(C)C(=O)c1ccc(CSc2cc(C(C)(C)C)c(O)c(C(C)(C)C)c2)cc1 [N,N-dimethyl-4-[(3,5-di-tert-butyl-4-hydroxyphenylthio)methyl]benzamide] | yes | no | 
10 | O=C(O)CCC(=O)O [succinate, reference compound] |  |  | no significant effect
11 | CC(C)(C)c1cc(SCc2ccc([N+](=O)[O-])cc2[N+](=O)[O-])cc(C(C)(C)C)c1O [2,6-di-tert-butyl-4-[(2,4-dinitrobenzyl)thio]phenol] | no | no | 
12 | CC(C)(Sc1cc(C(C)(C)C)c(O)c(C(C)(C)C)c1)Sc1cc(C(C)(C)C)c(OC[C@@H](O)[C@@H](O)[C@H](O)[C@@H](O)C=O)c(C(C)(C)C)c1 [6-deoxy-6-(probucol-1-yl)-D-glucose] | yes | yes | 
13 | CC(C)(C)c1cc(SCC(=O)c2ccc([N+](=O)[O-])cc2)cc(C(C)(C)C)c1O [α-(3,5-di-tert-butyl-4-hydroxyphenylthio)-4-nitro-acetophenone] | yes | no | 
14 | CC(C)(C)c1cc(SCc2ccc(F)cc2C(F)(F)F)cc(C(C)(C)C)c1O [2,6-di-tert-butyl-4-[4-fluoro-2-(trifluoromethyl)benzylthio]phenol] | no | no | 
15 | CC(C)(C)c1cc(SCc2ccc(OC(=O)c3ccccc3)cc2)cc(C(C)(C)C)c1O [4-[(3,5-di-tert-butyl-4-hydroxyphenylthio)methyl]phenyl benzoate] | yes | yes | 
